Measured values published in patent publication US8003660B2, “Modulators of muscarinic receptors” (Vertex Pharmaceuticals Incorporated, priority 2006, dated 2011).
Like-named read-outs stand apart in the source and are kept apart here.

Legend:
Type in all cases: cell-based
M1 muscarinic receptor = molecular target: T1, M1 muscarinic receptor (Homo sapiens, UniProt P11229); assay: Functional mobilization of intracellular calcium (FLIPR) in CHO cells expressing M1; settings: for EC50: CHO cells expressing M1, FLIPR calcium; for Emax: CHO; for M1 Activity: CHO cells expressing M1, FLIPR calcium assay
T1 construct: expressed in transfected cells; host or cells: CHO (M1-CHO)
T1 sequence (P11229 1-460): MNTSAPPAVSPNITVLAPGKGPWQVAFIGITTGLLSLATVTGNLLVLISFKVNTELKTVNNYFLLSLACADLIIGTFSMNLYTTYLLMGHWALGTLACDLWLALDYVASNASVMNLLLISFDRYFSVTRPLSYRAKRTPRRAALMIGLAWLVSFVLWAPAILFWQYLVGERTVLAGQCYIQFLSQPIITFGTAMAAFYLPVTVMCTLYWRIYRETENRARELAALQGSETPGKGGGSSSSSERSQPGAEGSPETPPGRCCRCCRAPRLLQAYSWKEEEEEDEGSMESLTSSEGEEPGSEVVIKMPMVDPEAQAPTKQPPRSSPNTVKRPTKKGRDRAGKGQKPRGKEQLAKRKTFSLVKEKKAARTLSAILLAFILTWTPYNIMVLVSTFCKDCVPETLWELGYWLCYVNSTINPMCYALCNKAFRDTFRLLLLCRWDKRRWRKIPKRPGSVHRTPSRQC
Method in brief: (§1)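 Recombinant CHO cells loaded with Fluo-3 AM or Calcium 3 dye in pH 7.4 buffer containing 1 mM probenecid, with 0.5% final DMSO. For agonism, compound is added directly. For inhibition, it is preincubated 15 min, or co-applied, before carbachol at EC80. FLIPR fluorescence (ex 488, em 540 nm) is recorded for 60 s.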

M2 muscarinic receptor = molecular target: T2, M2 muscarinic receptor (Homo sapiens, UniProt P08172); assay: Functional mobilization of intracellular calcium (FLIPR) in CHO cells expressing M2; settings: for EC50: CHO cells expressing M2, FLIPR calcium; for Emax: CHO; for M2 Activity: CHO cells expressing M2, FLIPR calcium assay
T2 construct: expressed in transfected cells; host or cells: CHO (M2-CHO)
T2 sequence (P08172 1-466): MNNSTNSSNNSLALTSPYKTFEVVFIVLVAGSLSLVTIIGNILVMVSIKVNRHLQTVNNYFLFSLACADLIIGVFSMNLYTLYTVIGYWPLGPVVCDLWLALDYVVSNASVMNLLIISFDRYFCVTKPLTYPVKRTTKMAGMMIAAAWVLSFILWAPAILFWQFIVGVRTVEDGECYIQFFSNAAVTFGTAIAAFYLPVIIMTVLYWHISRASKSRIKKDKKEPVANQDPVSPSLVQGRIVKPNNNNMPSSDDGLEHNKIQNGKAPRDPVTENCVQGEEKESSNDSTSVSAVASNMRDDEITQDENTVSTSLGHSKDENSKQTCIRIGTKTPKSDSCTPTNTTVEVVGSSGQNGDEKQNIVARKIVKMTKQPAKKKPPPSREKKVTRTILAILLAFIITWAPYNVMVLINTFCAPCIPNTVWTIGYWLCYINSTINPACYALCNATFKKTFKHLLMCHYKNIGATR
Method in brief: as §1

M3 muscarinic receptor = molecular target: T3, M3 muscarinic receptor (Homo sapiens, UniProt P20309); assay: Functional mobilization of intracellular calcium (FLIPR) in CHO cells expressing M3; settings: for EC50: CHO cells expressing M3, FLIPR calcium; for Emax: CHO; for M3 Activity: CHO cells expressing M3, FLIPR calcium assay
T3 construct: expressed in transfected cells; host or cells: CHO (M3-CHO)
Method in brief: as §1

M4 muscarinic receptor = molecular target: T4, M4 muscarinic receptor (Homo sapiens, UniProt P08173); assay: Functional mobilization of intracellular calcium (FLIPR) in CHO cells expressing M4; settings: for EC50: CHO cells expressing M4, FLIPR calcium; for Emax: CHO; for M4 Activity: CHO cells expressing M4, FLIPR calcium assay
T4 construct: expressed in transfected cells; host or cells: CHO (M4-CHO)
T4 sequence (P08173 1-479): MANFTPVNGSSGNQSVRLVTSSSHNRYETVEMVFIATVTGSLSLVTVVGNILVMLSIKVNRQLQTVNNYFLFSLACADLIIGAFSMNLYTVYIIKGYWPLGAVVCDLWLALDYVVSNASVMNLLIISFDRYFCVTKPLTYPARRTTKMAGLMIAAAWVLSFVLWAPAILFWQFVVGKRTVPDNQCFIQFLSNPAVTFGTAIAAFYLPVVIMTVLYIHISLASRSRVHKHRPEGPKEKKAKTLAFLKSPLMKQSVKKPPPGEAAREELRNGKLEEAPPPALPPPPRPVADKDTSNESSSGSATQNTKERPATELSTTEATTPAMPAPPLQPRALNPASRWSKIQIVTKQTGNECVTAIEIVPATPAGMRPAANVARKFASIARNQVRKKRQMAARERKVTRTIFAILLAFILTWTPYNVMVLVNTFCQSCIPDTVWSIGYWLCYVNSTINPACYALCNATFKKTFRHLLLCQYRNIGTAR
Method in brief: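 Calcium flux is read on FLIPR over 60 sec at 488/540 nm in muscarinic-receptor CHO lines. Antagonist mode adds carbachol at EC80 after 15 min compound preincubation or with simultaneous co-application. Agonist mode adds compound alone. Cells carry Fluo-3 or Calcium 3 dye in probenecid-containing pH 7.4 buffer, 0.5% DMSO final.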

[1] = 100% = maximum response obtained with the Carbachol control, read-out: M1 Efficacy
[2] = 100% = maximum response obtained with the Carbachol control, read-out: M2 Efficacy
[3] = 100% = maximum response obtained with the Carbachol control, read-out: M3 Efficacy
[4] = 100% = maximum response obtained with the Carbachol control, read-out: M4 Efficacy
[5] = 100% efficacy = maximum response obtained with the Carbachol control

T3 sequence (P20309 whole entry): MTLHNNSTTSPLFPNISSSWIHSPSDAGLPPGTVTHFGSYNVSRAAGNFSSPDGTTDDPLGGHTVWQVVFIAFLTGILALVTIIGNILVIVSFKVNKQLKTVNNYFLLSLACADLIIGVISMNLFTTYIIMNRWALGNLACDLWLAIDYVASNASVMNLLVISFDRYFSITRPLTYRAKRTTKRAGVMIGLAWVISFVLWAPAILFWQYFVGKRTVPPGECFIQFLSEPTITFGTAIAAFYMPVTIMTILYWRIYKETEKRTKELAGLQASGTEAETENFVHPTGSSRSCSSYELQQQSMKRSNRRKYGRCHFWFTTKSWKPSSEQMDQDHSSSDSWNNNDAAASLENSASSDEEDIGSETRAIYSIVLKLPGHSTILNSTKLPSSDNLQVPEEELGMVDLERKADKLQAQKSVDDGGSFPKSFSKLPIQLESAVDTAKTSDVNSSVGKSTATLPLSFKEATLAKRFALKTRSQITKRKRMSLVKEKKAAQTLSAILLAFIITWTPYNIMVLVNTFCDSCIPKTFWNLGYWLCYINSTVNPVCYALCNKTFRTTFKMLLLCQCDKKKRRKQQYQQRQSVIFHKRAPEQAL

| SMILES | EC50 (M1 muscarinic receptor) | Emax (M1 muscarinic receptor; [1]) | EC50 (M2 muscarinic receptor) | Emax (M2 muscarinic receptor; [2]) | EC50 (M3 muscarinic receptor) | Emax (M3 muscarinic receptor; [3]) | EC50 (M4 muscarinic receptor) | Emax (M4 muscarinic receptor; [4]) | M1 Activity (M1 muscarinic receptor) | Emax (M1 muscarinic receptor; [5]) | M2 Activity (M2 muscarinic receptor) | Emax (M2 muscarinic receptor; [5]) | M3 Activity (M3 muscarinic receptor) | Emax (M3 muscarinic receptor; [5]) | M4 Activity (M4 muscarinic receptor) | Emax (M4 muscarinic receptor; [5]) |
| --- | --- | --- | --- | --- | --- | --- | --- | --- | --- | --- | --- | --- | --- | --- | --- | --- |
| COC(C)(C)CCCC(C)CCN1CCC2(CC[C@H](NC(=O)N(C)C)c3ccccc32)CC1 (some centres unmarked) [compound 19] | > 5 µM | < 25% | > 5 µM | < 25% | > 5 µM | < 25% | > 5 µM | < 25% | – | – | – | – | – | – | – | – |
| Cc1cc(C(=O)N[C@@H]2CCC3(CCN(CCC(C)(C)C)CC3)c3cc(F)ccc32)nn1C [compound 40] | < 2 µM | 25 to 100% | < 2 µM | 25 to 100% | > 5 µM | < 25% | < 2 µM | 25 to 100% | – | – | – | – | – | – | – | – |
| CC(C)CCN1CCC2(CC[C@H](N3CCCC3=O)c3ccccc32)CC1 [compound 90] | 2 to 5 µM | 25 to 100% | > 5 µM | < 25% | > 5 µM | < 25% | 2 to 5 µM | 25 to 100% | – | – | – | – | – | – | – | – |
| CC(=O)N[C@H]1CC2(CCN(CC(C)CCC=C(C)C)CC2)c2ccccc21 (some centres unmarked) [compound 273] | – | – | – | – | – | – | – | – | +++ (activity was measured to be less than 2.0 μM) | 25 to 100% | + (activity was measured to be greater than 5.0 μM) | < 25% | + (activity was measured to be greater than 5.0 μM) | < 25% | +++ (activity was measured to be less than 2.0 μM) | 25 to 100% |
| CCN(C(=O)c1cscn1)[C@H]1CCC2(CCN(CCC(C)(C)C)CC2)c2ccccc21 [compound 10] | > 5 µM | < 25% | > 5 µM | < 25% | > 5 µM | < 25% | < 2 µM | 25 to 100% | – | – | – | – | – | – | – | – |
| CC(C)CCN1CCC2(CC1)C[C@H](NC(=O)C1CC1)c1ccccc12 [compound 247] | – | – | – | – | – | – | – | – | + (activity was measured to be greater than 5.0 μM) | 25 to 100% | + (activity was measured to be greater than 5.0 μM) | < 25% | + (activity was measured to be greater than 5.0 μM) | < 25% | + (activity was measured to be greater than 5.0 μM) | < 25% |
| CC(C)C[C@@H](C(=O)N[C@H]1CCC2(CCN(CCC(C)(C)C)CC2)c2ccccc21)N1CCCC1=O [compound 23] | 2 to 5 µM | < 25% | > 5 µM | < 25% | > 5 µM | < 25% | < 2 µM | 25 to 100% | – | – | – | – | – | – | – | – |
| CCOC(=O)N[C@H]1CCC2(CCN(CCC(C)(C)C)CC2)c2ccccc21 [compound 12] | < 2 µM | 25 to 100% | < 2 µM | 25 to 100% | > 5 µM | < 25% | < 2 µM | 25 to 100% | – | – | – | – | – | – | – | – |
| C[C@H](C(=O)N[C@@H]1CCC2(CCN(CCC(C)(C)C)CC2)c2ccccc21)N1CCCC1=O [compound 157] | 2 to 5 µM | 25 to 100% | < 2 µM | < 25% | > 5 µM | < 25% | < 2 µM | 25 to 100% | – | – | – | – | – | – | – | – |
| CCC(=O)C1NCCC1C(=O)N[C@H]1CCC2(CCN(CCC(C)(C)C)CC2)c2cc(F)ccc21 (some centres unmarked) [compound 26] | < 2 µM | 25 to 100% | > 5 µM | < 25% | > 5 µM | < 25% | < 2 µM | 25 to 100% | – | – | – | – | – | – | – | – |
| CC(=O)N1CCCC(C(=O)N[C@@H]2CCC3(CCN(CCC(C)(C)C)CC3)c3ccccc32)C1 (some centres unmarked) [compound 143] | 2 to 5 µM | 25 to 100% | > 5 µM | < 25% | > 5 µM | < 25% | < 2 µM | 25 to 100% | – | – | – | – | – | – | – | – |
| Cn1nccc1C(=O)N[C@H]1CCC2(CCN(CCC(C)(C)C)CC2)c2ccccc21 [compound 193] | – | – | – | – | – | – | – | – | +++ (activity was measured to be less than 2.0 μM) | 25 to 100% | + (activity was measured to be greater than 5.0 μM) | < 25% | + (activity was measured to be greater than 5.0 μM) | < 25% | +++ (activity was measured to be less than 2.0 μM) | 25 to 100% |
| Cc1ccc2c(c1)C(=O)CC21CCN(C(=O)OC(C)(C)C)CC1 [compound 252] | – | – | – | – | – | – | – | – | + (activity was measured to be greater than 5.0 μM) | < 25% | + (activity was measured to be greater than 5.0 μM) | < 25% | + (activity was measured to be greater than 5.0 μM) | < 25% | + (activity was measured to be greater than 5.0 μM) | < 25% |
| C[C@H](C(=O)N[C@H]1CCC2(CCN(CCC(C)(C)C)CC2)c2ccccc21)N1CCCC1=O [compound 109] | < 2 µM | 25 to 100% | > 5 µM | < 25% | > 5 µM | < 25% | < 2 µM | 25 to 100% | – | – | – | – | – | – | – | – |
| CC(C)(C)CCN1CCC2(CC[C@H](NC(=O)CC3CCCC3=O)c3ccc(F)cc32)CC1 (some centres unmarked) [compound 28] | < 2 µM | 25 to 100% | 2 to 5 µM | < 25% | > 5 µM | < 25% | < 2 µM | 25 to 100% | – | – | – | – | – | – | – | – |
| CC(C)(C)CCN1CCC2(CC[C@H](NC(=O)C3CCCO3)c3ccccc32)CC1 (some centres unmarked) [compound 31] | < 2 µM | 25 to 100% | < 2 µM | < 25% | > 5 µM | < 25% | < 2 µM | 25 to 100% | – | – | – | – | – | – | – | – |
| CC(=O)N1CCCC(C(=O)N[C@H]2CCC3(CCN(CCC(C)(C)C)CC3)c3ccccc32)C1 (some centres unmarked) [compound 121] | < 2 µM | 25 to 100% | > 5 µM | < 25% | > 5 µM | < 25% | < 2 µM | 25 to 100% | – | – | – | – | – | – | – | – |
| CC(C)(C)CCN1CCC2(CC[C@@H](NC(=O)C3CCOCC3)c3ccccc32)CC1 [compound 188] | – | – | – | – | – | – | – | – | + (activity was measured to be greater than 5.0 μM) | < 25% | + (activity was measured to be greater than 5.0 μM) | < 25% | + (activity was measured to be greater than 5.0 μM) | < 25% | +++ (activity was measured to be less than 2.0 μM) | 25 to 100% |
| CC(=O)N[C@@H]1CCC2(CCN(CCC(C)(C)C)CC2)c2cc(F)ccc21 [compound 189] | – | – | – | – | – | – | – | – | +++ (activity was measured to be less than 2.0 μM) | 25 to 100% | +++ (activity was measured to be less than 2.0 μM) | < 25% | + (activity was measured to be greater than 5.0 μM) | < 25% | +++ (activity was measured to be less than 2.0 μM) | 25 to 100% |
